What was measured:
Type in all cases: cell-based
[1] = test system: hair follicles dermal papilla cells (HFDPCs); assay: VEGF secretion by HFDPC under cortisone (ELISA); settings: cortisone 200 μM alone, 60 h
Experimental: (§1) 2.3. Evaluation of the ability of PVE to counteract the glucocorticoids-induced decrease proliferation of hair follicles cells and to restore the VEGF secretion HFDP cells were maintained in Follicle Dermal Papilla Cell Growth Medium (C-26501, PromoCell, Heidelberg, Germany) at 37° C., under 5%, CO2. Cells at passage 4 were plated in 24 well plate at 2×10^4 cells/well. HFDPCs at 60% confluence was pretreated with 5, 10 or 20 ppm of PVE for 2 h, and subsequently treated with 200 μM cortisone. After incubation for 60 h, cell culture supernatant was recovered, and secreted VEGF was measured using ELISA kit. For the cell proliferation assay, the WST test was used (EZ-Cytox, DogenBio, Korea). Absorbance was measured at 450 nm wavelength using microplate spectrophotometry.

[2] = test system: hair follicles dermal papilla cells (HFDPCs); assay: HFDPC proliferation under cortisone (WST test); settings: cortisone 200 μM alone, 60 h
Experimental: as §1

[3] = test system: Human sensory neurons derived from hiPS cells; assay: CGRP release by sensory neurons after cortisol or histamine challenge (ELISA); settings: for CGRP release by sensory neurons: stress molecule alone at 10 μM, 30 minutes of stimulation, vs control
Experimental: Human sensory neurons are derived from hiPS cells (human induced Pluripotent Stem cells). hiPS cells are obtained by transfecting human fibroblasts cells. Cells were plated in 96 wells plates coated by a thin layer of Matrigel® (Corning; ref: 354277; batch: 9238002) in a differentiation medium (M1). Cells were incubated at 37° C. and 5% CO2 for 6 days and culture medium was changed every 2 days. After 9 days of differentiation, medium M1 was replaced by a maturation medium for human sensory neurons (M2). Cells were incubated at 37° C. and 5% CO2 for 6 days and culture medium was changed every 2 days. […] H-2700; batch: 1069755) was added. […] Culture was incubated for 24 hours at 37° C. and 5% of CO2. After 2 or 24 hours of incubation, the culture plates were stimulated by cortisol (Sigma Aldrich; ref: H0888; batch: SLB[…]) or histamine, each at 10 μM (Tocris; ref: 3545; batch: 1A/18942). After 30 minutes of stimulation, supernatants were removed and stored at -80° C. The amount of CGRP (antibodies-online; ref: abx257902; batch: E2001551F) released in supernatant after 30 minutes of stimulation were dosed by ELISA and compared to non-treated control. All values were expressed as mean +/-s.e.mean.

[4] = test system: Human sensory neurons derived from hiPS cells; assay: Oxytocin release by sensory neurons after cortisol or histamine challenge (ELISA); settings: 2 h pre-incubation
Experimental: Human sensory neurons are derived from hiPS cells (human induced Pluripotent Stem cells). hiPS cells are obtained by transfecting human fibroblasts cells. Cells were plated in 96 wells plates coated by a thin layer of Matrigel® (Corning; ref: 354277; batch: 9238002) in a differentiation medium (M1). Cells were incubated at 37° C. and 5% CO2 for 6 days and culture medium was changed every 2 days.
After 9 days of differentiation, medium M1 was replaced by a maturation medium for human sensory neurons (M2). Cells were incubated at 37° C. and 5% CO2 for 6 days and culture medium was changed every 2 days. On day 18 of culture (24 hours of pre-incubation) or day 19 of culture (2 hours of pre-incubation,) the medium was removed, and fresh medium with PVE or reference compound β-endorphin (Bachem; ref: H-2700; batch: 1069755) was added. The following conditions were done: control medium, control medium containing PVE at 50, 100 or 150 ppm, control medium containing beta-endorphin at 10 μM. Culture was incubated for 24 hours at 37° C. and 5% of CO2. After 2 or 24 hours of incubation, the culture plates were stimulated by cortisol (Sigma Aldrich; ref: H0888; batch: SLBN5690V) or histamine, each at 10 μM (Tocris; ref: 3545; batch: 1A/18942). After 30 minutes of stimulation, supernatants were removed and stored at −80° C. […]

Human hair follicles [5] = assay: Hair follicle cell proliferation (Ki-67) and apoptosis (TUNEL) under cortisol; settings: cortisol alone, five days, vs control
Experimental: Human hair follicles were removed from a fresh scalp/face skin biopsy of a person. After the depilation, isolated follicles were selected by microscopic observation to select only ones in anagen phase. They were randomized and placed in supplemented William's E medium (Penicillin/Streptomycin, L-glutamine (2 mM), hydrocortisone (0.027 μM), sodium selenite (10 ng/ml), transferrin (10 μg/ml) and insulin (10 μg/ml) and indicated treatment (control, cortisol at 100 μM, PVE at 50 or 150 ppm in presence or not of cortisol). To perform immunostaining, slide deparaffinization was manually conducted using successive baths of solvent. Heat-induced epitope retrieval was performed using the Dako Envision Flex solution (Agilent, Santa Clara, US). Ki-67 (dilution 1/500).Cell proliferation was studied by Ki-67 immunostainings realized on paraffin sections (mouse monoclonal anti-Ki-67, Dako™ M7240, Santa Clara, US), The apoptosis was studied by using click-iT® Plus Alexa 488 TUNEL assay (ThermoScientific™, C10617, Waltham, MA, USA) following supplier instructions. After TUNEL assay and Ki67 antibody incubation, slices were incubated one hour at room temperature with an Alexa 568 coupled secondary antibody (A11004, Thermo Fischer Scientific™, Waltham, MA, USA). Nuclei counterstain was done using Hoechst (Invitrogen, ref H3570) at 1/5000 for 5 minutes at RT. Slides were mounted in aqueous medium.

Human hair follicles [6] = assay: Growth of isolated human hair follicles under cortisol (ex vivo culture, 5 days); settings: cortisol 100 μM alone, day 1 to day 5
Experimental: Human hair follicles were removed from a fresh scalp/face skin biopsy of a person. After the depilation, isolated follicles were selected by microscopic observation to select only ones in anagen phase. They were randomized and placed in supplemented William's E medium (Penicillin/Streptomycin, L-glutamine (2 mM), hydrocortisone (0.027 μM), sodium selenite (10 ng/ml), transferrin (10 μg/ml) and insulin (10 μg/ml) and indicated treatment (control, cortisol at 100 μM, PVE at 50 or 150 ppm in presence or not of cortisol). Follicles were cultured at 37° C. under 5% CO2 and a relative humidity >95%. Medium was changed at day 1 and 3. The growth of isolated follicles was monitored for 5 days by daily photography using a stereomicroscope device (Carl Zeiss, Microscopy, France). The length of each follicle was measured using ImageJ software.

Human hair follicles [7] = assay: Hair follicle pigmentation, Masson's Fontana staining; settings: cortisol alone, 5 days
Experimental: (§2) Human hair follicles were removed from a fresh scalp/face skin biopsy of a person. After the depilation, isolated follicles were selected by microscopic observation to select only ones in anagen phase. They were randomized and placed in supplemented William's E medium (Penicillin/Streptomycin, L-glutamine (2 mM), hydrocortisone (0.027 μM), sodium selenite (10 ng/ml), transferrin (10 μg/ml) and insulin (10 μg/ml) and indicated treatment (control, cortisol at 100 μM, PVE at 50 or 150 ppm in presence or not of cortisol). After overnight fixation in paraformaldehyde solution (MM France, Brignais, France), samples were dehydrated and impregnated in paraffin using a dehydration automat (STP120 ThermoScientific™ Waltham, MA, USA). The Then, sections of […] were mounted on Superfrost® Gold slides before proceeding to Masson's Fontana staining. This staining is used to visualize melanin granules. Melanin is a non-lipid pigment, brown to black, present physiologically in hair, eyes, and skin.

Human hair follicles [8] = assay: Hair follicle structure, HES staining; settings: cortisol 100 μM alone, 5 days
Experimental: as §2, with “USA).” for “USA). The”, “Hematoxylin-eosin-saffron (HES)” for “Masson's Fontana”, “Hematoxylin-eosin-saffron (HES)” for “This staining is used to visualize melanin granules. Melanin”, “trichromatic coloration using nuclear, cytoplasmic” for “non-lipid pigment, brown to black, present physiologically in hair, eyes,”, “matrix colorants, usually used for the visualization of tissues.” for “skin.”

C[C@]12CCC(=O)C=C1CC[C@@H]1[C@@H]2C(=O)C[C@@]2(C)[C@H]1CC[C@]2(O)C(=O)CO [cortisone]
VEGF secretion by HFDPC [1]: reduced VEGF production | HFDPCs proliferation [2]: inhibits the HFDPCs proliferation

NCCc1c[nH]cn1 [histamine]
CGRP release by sensory neurons [3]: strong increase of CGRP release

β-endorphin (YGGFMTSEKSQTPLVTLFKNAIIKNAYKKGE; Beta-endorphin; UniProt P01189 237-267, looked up)
oxytocin release by sensory neurons ([4]; then cortisol 10 μM challenge): no effect on the oxytocin release | oxytocin release by sensory neurons ([4]; then histamine 10 μM challenge): no effect on the oxytocin release | CGRP release by sensory neurons (sensory neuron excitation) ([3]; 2 h or 24 h pre-incubation, PVE 50, 100 or 150 ppm, beta-endorphin 10 μM, then cortisol 10 μM, 30 minutes): reduce the neuronal excitation at level similar to the control condition

C[C@]12CCC(=O)C=C1CC[C@@H]1[C@@H]2[C@@H](O)C[C@@]2(C)[C@H]1CC[C@]2(O)C(=O)CO [cortisol]
apoptosis of hair follicle cells (TUNEL) (Human hair follicles [5]): induces apoptosis in cells | hair follicle cell proliferation (Ki-67) (Human hair follicles [5]): reduced cell proliferation | hair follicle growth (length) (Human hair follicles [6]): strongly reduced | hair follicle pigmentation (melanin granules) (Human hair follicles [7]): almost all the melanin granules disappeared | hair follicle structure (dermal sheath, hair matrix) (Human hair follicles [8]): dramatically altered | CGRP release by sensory neurons [3]: strong increase of CGRP release

From patent US20240374667A1, “Prunella vulgaris extract and use thereof” (Clariant International Ltd, priority 2021, published 2024)
